{
  "source": "patent US7265155B2",
  "about": "(NBS Pharmaceuticals, Inc., priority 1996, dated 2007)",
  "key": {"amygdala-kindled rat [1]": {"tested_on": "amygdala-kindled rat", "assay": "Anticonvulsant activity in the fully amygdala-kindled rat", "format": "in vivo", "conditions": "oral dosing, sixty minutes before stimulation", "method": "Isovaleramide was evaluated for its ability to block the expression of amygdala-kindled seizures in fully kindled rats. Isovaleramide was evaluated for its ability to block the kindled motor seizure (seizure scores of 4 and 5) and limbic behavioral seizures (seizure score between 1-3) as well as to affect changes in afterdischarge duration.\nAdult, male Sprague-Dawley rats weighing at least 230 gr were implanted with a teflon-coated bipolar electrode sterotaxically placed in the anterior basolateral nucleus of the amygdala under ketamine and xylazine anesthesia. The electrode was implanted at the following coordinates with Bregma as zero: AP-2.2 mm, ML-4.7 mm, DV-8.7 mm. After a one-week recovery period, animals were kindled to Stage 5 behavioral seizures using a stimulus consisting of a 50 Hz, 1 sec train of 1 ms biphasic 150 uA pulses that were delivered once daily until 10 consecutive stage 5 seizures were evoked. Testing of isovaleramide was initiated after a one-week, stimulus-free period. On the compound test day, rats displaying a stage 5 seizure were divided into multiple treatment groups (i.e., vehicle control and isovaleramide treatment). Sixty minutes after oral dosing, individual rats received a 300 uA, 1 sec duration stimulation and their seizure score and afterdischarge duration recorded. Seizure score was classified according to Racine (Electroencephalogr. Clin. Neurophysiol. 32:281-294, (1972): stage 0: no abnormal behavior; stage 1: mouth or facial movements; stage 2: mouth or facial movements and head nodding; stage 3: stage 2 and forelimb clonus; stage 4: stage 3 and rearing; stage 5: stage 4 and falling. A score of 2-3 represents a focal seizure while a score of 4-5 represents secondarily generalized seizures. Afterdischarge duration was the total duration of the amygdala electroencephalogram spikes with an amplitude of at least twice the amplitude of the prestimulus recording and a frequency greater than 1/sec."}, "amygdala-kindled rat [2]": {"tested_on": "amygdala-kindled rat", "assay": "Antiepileptogenic effect during kindling in the amygdala-kindled rat", "format": "in vivo", "conditions": "daily 500 mg/kg p.o.", "method": "In these studies, groups of adult, male Sprague-Dawley rats weighing at least 230 gr were implanted with a teflon-coated bipolar electrode sterotaxically placed in the anterior basolateral nucleus of the amygdala under ketarine and xylazine anesthesia. The electrode was implanted at the following coordinates with Bregma as zero: AP-2.2 mm, ML-4.7 mm, DV-8.7 mm. Chronic treatment with vehicle (0.5% carboxymethylcellulose, p.o.) or isovaleramide (500 mg/kg, p.o., […] of body weight) was initiated after a seven-day postoperative recovery period. […] After 11 treatment days, all animals were permitted a 7-day drug- and stimulus-free period. […] Seizure score and afterdischarge duration were recorded after each stimulation. Seizure score was classified according to Racine scale (1972): stage 0, no abnormal behavior; stage 1, mouth or facial movements; stage 2, mouth or facial movements and head nodding; stage 3, stage 2 and forelimb clonus; stage 4, stage 3 and rearing; stage 5, stage 4 and falling. A score of 2-3 represents a focal seizure while a score of 4-5 represents secondarily generalized seizures. Afterdischarge duration was the total duration of the amygdala electroencephalogram spikes with an amplitude of at least twice the amplitude of the prestimulus recording and a frequency greater than 1/sec. […]"}, "[3]": {"conditions": "cited from earlier work"}, "[4]": {"tested_on": "Frings audiogenic seizure-susceptible mouse", "assay": "Frings audiogenic seizure-susceptible mouse model of epilepsy", "format": "in vivo", "conditions": "for ED50: Mus musculus", "excerpt": "One useful model is provided by the Frings audiogenic seizure-susceptible mouse, a model of reflex epilepsy. At the time of testing, individual mice are placed into a round Plexiglas chamber and exposed to a sound stimulus of 110 decibels, 11 kHz, for 20 seconds. Animals not displaying tonic hindlimb extensions were considered protected. In addition, the seizure score for each mouse can be recorded as: (1) running for less than 10 seconds; (2) running for greater than 10 seconds; (3) clonic activity of limbs and/or vibrissae; (4) forelimb extension/hindlimb flexion; and (5) hindlimb extension.\n(§1) The average seizure score can be calculated for each group of mice employed in the dose-response study. At each dose, mice are also tested on a rotarod for testing of motor impairment (toxicity). Testing for motor impairment on the rotarod involves placing a mouse for a three-minute trial period on a one-inch diameter rod rotating at six revolutions per minute. If the mouse falls off of the rotating rod three times within the three-minute time period, it is considered a toxic response."}, "[5]": {"assay": "Rotarod motor impairment (toxicity) in the Frings mouse", "format": "in vivo", "conditions": "Frings, mouse, in vivo", "method": "as §1"}, "Frings mouse": {"tested_on": "Frings mouse", "assay": "Rotarod motor impairment (toxicity) in the Frings mouse", "format": "in vivo", "method": "as §1"}},
  "note": "Where “and” joins values, the source holds several entries; their conditions need not be identical. Equal entries are not always repeated. Entries after “also recorded” stand apart in the source; their conditions may differ. Where two headings read alike, the source gives them in different places. Marks after values point to notes of the source that are not given here.",
  "data": [
    {"smiles": "CC(C)CC(N)=O", "note": "[Isovaleramide, isovaleramide]", "values": [
      {"measurement": "afterdischarge duration", "setting": "amygdala-kindled rat [1]", "value": "decreased"},
      {"measurement": "generalized seizure responses of fully kindled rats", "setting": "amygdala-kindled rat [1]", "value": "effective in reducing in a dose-dependent manner the generalized seizure responses; also recorded: effective in reducing, in a dose-dependent manner, the generalized seizure responses"},
      {"measurement": "mean seizure score", "setting": "amygdala-kindled rat [1]", "value": "decreased"},
      {"measurement": "seizure development over time", "setting": "amygdala-kindled rat [2]", "value": "eventually developed full stage 5 seizures"},
      {"measurement": "increases in seizure score and afterdischarge duration during electrical kindling", "setting": "amygdala-kindled rat [2]; 30-minute pretreatment", "value": "delayed the increases in both seizure score and afterdischarge duration; also recorded: elicited a delay in the rate of increase in both seizure score and afterdischarge duration"},
      {"measurement": "acute toxicity in vivo", "setting": "[3]", "value": "low acute toxicity in vivo"},
      {"measurement": "Number Protected of Eight Mice Tested", "setting": "[4]; 75 mg/kg i.p., 15 minutes", "value": 1},
      {"measurement": "Seizure Score ± S.E.M.", "setting": "[4]; 75 mg/kg i.p., 15 minutes", "value": "4.4 ± 0.6"},
      {"measurement": "Seizure Score ± S.E.M.", "setting": "[4]; 100 mg/kg oral", "value": "4.5 ± 0.5"},
      {"measurement": "Number Protected of Eight Mice Tested", "setting": "[4]; 100 mg/kg oral, measured at 30 minutes", "value": 1},
      {"measurement": "Number Protected of Eight Mice Tested", "setting": "[4]; 112.5 mg/kg i.p., 15 minutes", "value": 2},
      {"measurement": "Seizure Score ± S.E.M.", "setting": "[4]; 112.5 mg/kg i.p., 15 minutes", "value": "4.0 ± 0.6"},
      {"measurement": "Number Protected of Eight Mice Tested", "setting": "[4]; 150 mg/kg i.p., 15 minutes", "value": 6},
      {"measurement": "Seizure Score ± S.E.M.", "setting": "[4]; 150 mg/kg i.p., 15 minutes", "value": "2.0 ± 0.6"},
      {"measurement": "Seizure Score ± S.E.M.", "setting": "[4]; 200 mg/kg oral", "value": "2.9 ± 0.8"},
      {"measurement": "Number Protected of Eight Mice Tested", "setting": "[4]; 200 mg/kg oral, measured at 30 minutes", "value": 4},
      {"measurement": "Number Protected of Eight Mice Tested", "setting": "[4]; 300 mg/kg i.p., 15 minutes", "value": 8},
      {"measurement": "Seizure Score ± S.E.M.", "setting": "[4]; 300 mg/kg i.p., 15 minutes", "value": "1.0 ± 0"},
      {"measurement": "Seizure Score ± S.E.M.", "setting": "[4]; 300 mg/kg oral", "value": "1.4 ± 0.5"},
      {"measurement": "Number Protected of Eight Mice Tested", "setting": "[4]; 300 mg/kg oral, measured at 30 minutes", "value": 7},
      {"measurement": "Seizure Score ± S.E.M.", "setting": "[4]; 600 mg/kg oral", "value": "0.25 ± 0.25"},
      {"measurement": "Number Protected of Eight Mice Tested", "setting": "[4]; 600 mg/kg oral, measured at 30 minutes", "value": 8},
      {"measurement": "Seizure Score ± S.E.M.", "setting": "[4]; 1500 mg/kg oral", "value": "0.6 ± 0.2"},
      {"measurement": "Number Protected of Eight Mice Tested", "setting": "[4]; 1500 mg/kg oral, tested at 4 hours", "value": "8^b"},
      {"measurement": "Seizure Score ± S.E.M.", "setting": "[4]; 2000 mg/kg oral", "value": "0 ± 0"},
      {"measurement": "Number Protected of Eight Mice Tested", "setting": "[4]; 2000 mg/kg oral, tested at 4 hours, only seven mice tested", "value": "7^b,d"},
      {"measurement": "ED50", "setting": "[4]; ip, 0.25 h, i.p., 15 minutes, read-out: ED50 for protection against tonic extension", "value": 126, "unit": "mg/kg"},
      {"measurement": "ED50", "setting": "[4]; oral, read-out: ED50 for protection", "value": 186, "unit": "mg/kg"},
      {"measurement": "time course of anticonvulsant activity", "setting": "[4]; i.p.", "value": "noted as early as 15 minutes, but decreased substantially by two hours"},
      {"measurement": "seizure score, dose dependence", "setting": "[4]; i.p., 15 minutes", "value": "dose-dependent reduction in seizure score"},
      {"measurement": "anticonvulsant activity when administered orally", "setting": "[4]; oral", "value": "displayed anticonvulsant activity when administered orally"},
      {"measurement": "TD50 at 15 min", "setting": "[5]; ip, 15 minutes, read-out: TD50 for rotarod impairment", "value": 531, "unit": "mg/kg"},
      {"measurement": "TD50 at 15 min", "setting": "[5]; oral, read-out: TD50", "value": 1010, "unit": "mg/kg"},
      {"measurement": "Number Showing Toxicity of Eight Mice Tested", "setting": "Frings mouse; 75 mg/kg i.p., 15 minutes", "value": 0},
      {"measurement": "Number Showing Toxicity of Eight Mice Tested", "setting": "Frings mouse; 112.5 mg/kg i.p., 15 minutes", "value": 0},
      {"measurement": "Number Showing Toxicity of Eight Mice Tested", "setting": "Frings mouse; 150 mg/kg i.p., 15 minutes", "value": 0},
      {"measurement": "Number Showing Toxicity of Eight Mice Tested", "setting": "Frings mouse; 300 mg/kg i.p., 15 minutes", "value": "1/8 and 1"},
      {"measurement": "Number Showing Toxicity of Eight Mice Tested", "setting": "Frings mouse; 300 mg/kg oral, tested at 15 minutes", "value": 1},
      {"measurement": "Number Showing Toxicity of Eight Mice Tested", "setting": "Frings mouse; 600 mg/kg i.p., 15 minutes", "value": "4/8 and 4"},
      {"measurement": "Number Showing Toxicity of Eight Mice Tested", "setting": "Frings mouse; 600 mg/kg oral, tested at 15 minutes", "value": 1},
      {"measurement": "Number Showing Toxicity of Eight Mice Tested", "setting": "Frings mouse; 1000 mg/kg i.p., 15 minutes", "value": "8/8 and 8"},
      {"measurement": "Number Showing Toxicity of Eight Mice Tested", "setting": "Frings mouse; 1000 mg/kg oral, tested at 15 minutes", "value": 5},
      {"measurement": "Number Showing Toxicity of Eight Mice Tested", "setting": "Frings mouse; 1500 mg/kg oral, tested at 15 minutes", "value": 5},
      {"measurement": "Number Showing Toxicity of Eight Mice Tested", "setting": "Frings mouse; 2000 mg/kg oral, tested at 15 minutes, only seven mice tested", "value": "7^d"},
      {"measurement": "rotarod performance in the Frings mouse", "setting": "Frings mouse; doses up to 512 mg/kg i.p. 15 minutes before test", "value": "did not affect performance significantly"},
      {"measurement": "doses at which behavioral toxicity (inability to maintain balance on the rotarod) was displayed", "setting": "Frings mouse; i.p.", "value": "> 300", "unit": "mg/kg"},
      {"measurement": "doses at which no notable toxicity was observed", "setting": "Frings mouse; i.p.", "value": "less than 300 mg/kg"}
    ]}
  ]
}
